Data taken from ChEMBL document CHEMBL1157492, “Discovery of potent and cell-active allosteric dual Akt 1 and 2 inhibitors” (Bioorg Med Chem Lett, 2008).
Active and inactive are the calls of the source. The calls are words filed in the database; no cut-off is given here.

Experiments:
[1] = target: T1, RAC-alpha serine/threonine-protein kinase (Homo sapiens, UniProt P31749); assay: Inhibition of Akt1 phosphorylation by HTRF assay
[2] = target: T1, RAC-alpha serine/threonine-protein kinase; assay: Inhibition of Akt1 phosphorylation in human by C33a cells by IPKA assay; assay type: cell-based
[3] = target: T2, RAC-beta serine/threonine-protein kinase (Homo sapiens, UniProt P31751); assay: Inhibition of Akt2 phosphorylation by HTRF assay
[4] = target: T2, RAC-beta serine/threonine-protein kinase; assay: Inhibition of Akt2 phosphorylation in human by C33a cells by IPKA assay; assay type: cell-based

T2 sequence (P31751 whole entry): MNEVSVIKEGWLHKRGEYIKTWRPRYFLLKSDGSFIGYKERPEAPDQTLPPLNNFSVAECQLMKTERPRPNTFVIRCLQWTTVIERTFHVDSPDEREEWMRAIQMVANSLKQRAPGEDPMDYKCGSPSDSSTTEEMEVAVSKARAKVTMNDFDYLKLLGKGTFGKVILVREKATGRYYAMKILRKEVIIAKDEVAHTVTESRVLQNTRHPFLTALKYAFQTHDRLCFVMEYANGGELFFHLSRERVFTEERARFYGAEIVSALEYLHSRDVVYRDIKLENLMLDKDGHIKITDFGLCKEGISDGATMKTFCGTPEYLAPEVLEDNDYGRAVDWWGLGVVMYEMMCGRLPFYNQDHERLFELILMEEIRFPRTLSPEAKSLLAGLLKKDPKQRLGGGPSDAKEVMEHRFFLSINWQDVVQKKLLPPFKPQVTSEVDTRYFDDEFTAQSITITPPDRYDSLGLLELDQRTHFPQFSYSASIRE
T1 sequence (P31749 whole entry): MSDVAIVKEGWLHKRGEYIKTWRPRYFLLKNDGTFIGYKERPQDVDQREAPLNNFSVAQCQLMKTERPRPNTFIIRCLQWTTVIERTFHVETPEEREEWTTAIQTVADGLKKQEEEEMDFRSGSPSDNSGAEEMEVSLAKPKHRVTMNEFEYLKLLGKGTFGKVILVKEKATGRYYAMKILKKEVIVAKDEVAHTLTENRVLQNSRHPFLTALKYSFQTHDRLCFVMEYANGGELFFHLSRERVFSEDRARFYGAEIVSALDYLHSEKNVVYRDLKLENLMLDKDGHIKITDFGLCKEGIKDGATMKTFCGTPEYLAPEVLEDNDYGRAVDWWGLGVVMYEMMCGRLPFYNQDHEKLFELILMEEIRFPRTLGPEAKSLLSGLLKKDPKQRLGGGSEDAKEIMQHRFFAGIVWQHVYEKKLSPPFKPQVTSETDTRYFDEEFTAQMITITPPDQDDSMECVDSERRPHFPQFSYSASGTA

| IC50 [1] [µM] | IC50 [2] [µM] | IC50 [3] [µM] | IC50 [4] [µM] | Activity [2] | Activity [4] | Structure (SMILES) |
| --- | --- | --- | --- | --- | --- | --- |
| 0.025 | 0.061 | 0.067 | 0.421 |  |  | O[C@@H]1CN(c2ncc3cc(-c4ccccc4)c(-c4ccc(CN5CCC(c6nnc(-c7ccccn7)[nH]6)CC5)cc4)nc3n2)CCN1 |
| 0.028 | 0.042 | 0.102 | 0.184 |  |  | C[C@@H]1CN(c2ncc3cc(-c4ccccc4)c(-c4ccc(CN5CCC(c6nnc(-c7ccccn7)[nH]6)CC5)cc4)nc3n2)C[C@H](C)O1 |
| 0.009 | 0.036 | 0.027 | 0.052 |  |  | CN1CCN(c2ncc3cc(-c4ccccc4)c(-c4ccc(CN5CCC(c6nnc(-c7ccccn7)[nH]6)CC5)cc4)nc3n2)CC1 |
| 0.005 | 0.019 | 0.043 | 0.243 |  |  | c1ccc(-c2cc3cnc(N4CCOCC4)nc3nc2-c2ccc(CN3CCC(c4nnc(-c5ccccn5)[nH]4)CC3)cc2)cc1 |
| 0.045 | 0.046 | 0.077 | 0.101 |  |  | C[C@@H]1CN(c2ncc3cc(-c4ccccc4)c(-c4ccc(CN5CCC(c6nnc(-c7ccccn7)[nH]6)CC5)cc4)nc3n2)C[C@H](C)N1 |
| 0.018 | 0.036 | 0.093 | 0.229 |  |  | c1ccc(-c2cc3cnc(N4CCCCC4)nc3nc2-c2ccc(CN3CCC(c4nnc(-c5ccccn5)[nH]4)CC3)cc2)cc1 |
| 0.02 | 0.075 | 0.252 | 0.462 |  |  | FC1(F)CCN(c2ncc3cc(-c4ccccc4)c(-c4ccc(CN5CCC(c6nnc(-c7ccccn7)[nH]6)CC5)cc4)nc3n2)C1 |
| 0.007 | 0.017 | 0.045 | 0.168 |  |  | OC1CCN(c2ncc3cc(-c4ccccc4)c(-c4ccc(CN5CCC(c6nnc(-c7ccccn7)[nH]6)CC5)cc4)nc3n2)CC1 |
| 0.038 |  | 0.297 |  | inactive |  | O=S1(=O)CCN(c2ncc3cc(-c4ccccc4)c(-c4ccc(CN5CCC(c6nnc(-c7ccccn7)[nH]6)CC5)cc4)nc3n2)CC1 |
| 0.043 | 0.194 | 0.029 | 0.199 |  |  | C[C@@H]1CN[C@@H](C)CN1c1ncc2cc(-c3ccccc3)c(-c3ccc(CN4CCC(c5nnc(-c6ccccn6)[nH]5)CC4)cc3)nc2n1 |
| 0.008 | 0.036 | 0.025 | 0.044 |  |  | C[C@@H]1CN(c2ncc3cc(-c4ccccc4)c(-c4ccc(CN5CCC(c6nnc(-c7ccccn7)[nH]6)CC5)cc4)nc3n2)CCN1 |
| 0.017 | 0.075 | 0.047 | 0.125 |  |  | C[C@H]1CN(c2ncc3cc(-c4ccccc4)c(-c4ccc(CN5CCC(c6nnc(-c7ccccn7)[nH]6)CC5)cc4)nc3n2)CCN1 |

Continued, molecule first:

| Structure (SMILES) | IC50 [1] [µM] | IC50 [2] [µM] | IC50 [3] [µM] | IC50 [4] [µM] | Activity [2] | Activity [4] |
| --- | --- | --- | --- | --- | --- | --- |
| CN(C)C1CCN(c2ncc3cc(-c4ccccc4)c(-c4ccc(CN5CCC(c6nnc(-c7ccccn7)[nH]6)CC5)cc4)nc3n2)CC1 | 0.01 | 0.023 | 0.022 | 0.07 |  |  |
| CN1CCN(c2cc3cc(-c4ccccc4)c(-c4ccc(CN5CCC(c6nnc(-c7ccccn7)[nH]6)CC5)cc4)nc3cn2)CC1 | 0.74 | 0.924 | 0.059 | 0.133 |  |  |
| CN1CCN(c2nccc3cc(-c4ccccc4)c(-c4ccc(CN5CCC(c6nnc(-c7ccccn7)[nH]6)CC5)cc4)nc23)CC1 | 0.72 |  | 3.57 |  | inactive | inactive |
| CN(C)C(=O)N1CCN(c2ncc3cc(-c4ccccc4)c(-c4ccc(CN5CCC(c6nnc(-c7ccccn7)[nH]6)CC5)cc4)nc3n2)CC1 | 0.018 | 0.013 | 0.04 | 0.177 |  |  |
| CN1CC(N2CCN(c3ncc4cc(-c5ccccc5)c(-c5ccc(CN6CCC(c7nnc(-c8ccccn8)[nH]7)CC6)cc5)nc4n3)CC2)C1 | 0.012 | 0.006 | 0.009 | 0.027 |  |  |
| CC(=O)N1CCN(c2ncc3cc(-c4ccccc4)c(-c4ccc(CN5CCC(c6nnc(-c7ccccn7)[nH]6)CC5)cc4)nc3n2)CC1 | 0.005 | 0.015 | 0.016 | 0.145 |  |  |
| CN(C)CC(=O)N1CCN(c2ncc3cc(-c4ccccc4)c(-c4ccc(CN5CCC(c6nnc(-c7ccccn7)[nH]6)CC5)cc4)nc3n2)CC1 | 0.006 | 0.003 | 0.006 | 0.019 |  |  |
| CN(C)CCNc1ncc2cc(-c3ccccc3)c(-c3ccc(CN4CCC(c5nnc(-c6ccccn6)[nH]5)CC4)cc3)nc2n1 | 0.079 | 0.208 | 0.154 | 0.223 |  |  |
| CSc1ncc2cc(-c3ccccc3)c(-c3ccc(CNCCC(=O)c4ccccc4N)cc3)nc2n1 |  | 0.078 |  | 0.388 |  |  |
| CS(=O)(=O)N1CCN(c2ncc3cc(-c4ccccc4)c(-c4ccc(CN5CCC(c6nnc(-c7ccccn7)[nH]6)CC5)cc4)nc3n2)CC1 | 0.007 | 0.02 | 0.023 | 0.196 |  |  |
| c1ccc(-c2cc3cnc(N4CCn5cnnc5C4)nc3nc2-c2ccc(CN3CCC(c4nnc(-c5ccccn5)[nH]4)CC3)cc2)cc1 | 0.019 | 0.125 | 0.138 | 0.735 |  |  |
| c1ccc(-c2cc3cnc(-n4ccnc4)nc3nc2-c2ccc(CN3CCC(c4nnc(-c5ccccn5)[nH]4)CC3)cc2)cc1 | 0.005 | 0.035 | 0.073 | 0.684 |  |  |
| OCCN1CCN(c2ncc3cc(-c4ccccc4)c(-c4ccc(CN5CCC(c6nnc(-c7ccccn7)[nH]6)CC5)cc4)nc3n2)CC1 | 0.009 | 0.017 | 0.031 | 0.041 |  |  |
| CN1CCN(c2nccc3nc(-c4ccc(CN5CCC(c6nnc(-c7ccccn7)[nH]6)CC5)cc4)c(-c4ccccc4)cc23)CC1 | 0.285 |  | 0.539 |  | inactive | inactive |
